Measurements published in patent publication US4965280A, “Antifungal carbinols” (E. I. Du Pont de Nemours and Company, priority 1989, dated 1990).
≈ marks a conversion by molar mass, not a printed value. Where two headings read alike, the source gives them in different places.

Legend:
[1] = tested on: Candida albicans ATCC 11651; experiment: In vivo systemic Candida infection in mice, primary assay; design: species or system Candida albicans; CF-1 female mice; details: Candida albicans, read-out: % Survival
In short: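 CF-1 female mice (20 g, 10 per group) were infected IV with 0.2 ml of 1×10^7/ml C. albicans ATCC 11651, then given test compound subcutaneously at 50 or 150 mg/kg/day at 1 and 6 h post-infection and once daily for three more days. Survival was followed for 21 days against infected untreated mice; ≥70% protection at 14 days was scored active.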

Venturia inaequalis = experiment: Example A apple scab; type: in vivo; details: read-out: disease control rating, Ex. A
In short: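 Spray application to run-off on apple seedlings; compound at 100 or 20 ppm in water with 250 ppm TREM 014 (polyhydric alcohol esters) and 6% acetone of final volume.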

[2] = tested on: Cercosporidium personatum; experiment: Example B Peanut Late Leafspot; type: in vivo; details: Nothopassalora personata, read-out: disease control rating, Ex. B
In short: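 Spray suspensions at 100 or 20 ppm, prepared from acetone solutions (acetone 6% of final volume) in water carrying 250 ppm of a polyhydric alcohol ester surfactant, were applied to peanut seedlings until run-off.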

Botrytis cinerea = experiment: Example C bean grey mold; type: in vivo; details: Botrytis cinerea, 24 h, read-out: disease control rating, Ex. C
In short: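 Spray rates: 100 and 20 ppm. Vehicle: purified water with 6% acetone by final volume plus 250 ppm TREM 014 (polyhydric alcohol esters). Host plants, broad bean seedlings, were wetted until run-off.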

[3] = tested on: Erysiphe graminis f. sp. tritici; experiment: Example D wheat powdery mildew; type: in vivo; details: Blumeria graminis, 144 h, read-out: disease control rating, Ex. D
In short: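 Seedling wheat was treated by spraying to run-off; formulation used acetone as co-solvent (6% final) and TREM 014 surfactant at 250 ppm, with compound at 100 or 20 ppm.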

Pyricularia oryzae = experiment: whole plant or invertebrate; type: in vivo; details: Pyricularia oryzae, 120 h; for pest or weed control at 100 ppm: read-out: disease control rating, Ex. E, 100 PPM; for pest or weed control at 20 ppm: read-out: disease control rating, Ex. E, 20 PPM
Rhizoctonia solani [4] = experiment: Example F rice sheath blight; type: in vivo; details: Rhizoctonia solani, 144 h, read-out: disease control rating, Ex. F
In short: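 Foliar run-off spray, rice seedlings: compound at 100 or 20 ppm in aqueous 250 ppm polyhydric alcohol ester surfactant, acetone 6% v/v final.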

Puccinia recondita = experiment: Example G wheat leaf rust; type: in vivo; details: read-out: disease control rating, Ex. G
Phytophthora infestans = experiment: whole plant or invertebrate; type: in vivo; details: Phytophthora infestans, in Solanum lycopersicum, read-out: disease control rating, Ex. H, 100 PPM
Plasmorpara viticola = experiment: Example I grape downy mildew; type: in vivo; details: read-out: disease control rating, Ex. I
In short: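 Compounds were dissolved in acetone (6% of final volume) and suspended at 100 or 20 ppm in purified water with 250 ppm TREM 014 surfactant (polyhydric alcohol esters). Grape seedlings were sprayed with this suspension to run-off.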

Pythium aphanadermatum = experiment: Example J cucumber damping off; type: in vivo; details: Pythium, 336 h; 5 kg/ha; read-out: disease control rating, Ex. J
In short: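 Seeds and soil were inoculated with a mix of sand, cereal and Pythium aphanadermatum mycelium, the fungus responsible for cucumber damping off. They were kept in a growth chamber at 30° C. for 14 days, and disease was then rated to assess control.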

Rhizoctonia solani [5] = experiment: Example K cotton blight; type: in vivo; details: 336 h, 5 kg/ha, read-out: disease control rating, Ex. K
Description: […] Seeds and soil were then inoculated with a mixture of sand, cereal and mycelium of the fungus Rhizoctonia solani, causal agent of cotton blight, and incubated in a growth chamber at 30° C. for 14 days. Disease ratings were then made.

[6] = tested on: Fusarium oxysporum f. sp. cucumerinum; experiment: Example L cucumber wilt; type: in vivo; details: 336 h, 5 kg/ha, read-out: disease control rating, Ex. L
Description: […] Seeds and soil were then inoculated with a mixture of sand, cereal and mycelium of the fungus Fusarium oxysporum f. sp. cucumerinum, causal agent of cucumber wilt, and incubated in a growth chamber at 30° C. for 14 days. Disease ratings were then made.

Sclerotium rolfsii = experiment: Example M southern blight; type: in vivo; details: Agroathelia rolfsii, 336 h; 5 kg/ha; read-out: disease control rating, Ex. M
Description: […] Seeds and soil were then inoculated with a mixture of sand, cereal and mycelium of the fungus Sclerotium rolfsii, causal agent of sourthern blight, and incubated in a growth chamber at 30° C. for 14 days. Disease ratings were then made.

[7] = tested on: Candida albicans ATCC 11651; experiment: In vitro antifungal MIC, microtiter broth dilution; details: Candida albicans, ATCC11651, 24 h, read-out: MIC values, C. albicans, 30°, 24 hours
Description: In vitro activity (Table 5) is expressed in terms of the minimal inhibitory concentration (MIC) of the test compound which inhibits the growth of yeasts and fungi.
The target organisms, Candida albicans ATCC 11651 and Aspergillus fumigatus ATCC 28214 are standardized, [V. Bezjak, J. Clinical Micro., 21 509-512 (1984)], to a concentration of 10^7 organisms/ml and maintained at -70° until use. Test compounds are solubilized in dimethyl sulfoxide (DMSO) and diluted in Eagle's Minimum Essential Medium (EMEM) broth to achieve a final concentration of 200 μg/ml. Stock solutions of standard antifungal agents are stored at -70° and diluted in EMEM as required.
The in vitro assay utilizes a microtiter broth dilution technique [L. Polonelli and G. Morace, Mycopathologia, 86, 21-28 (1984)] and C. […] The appropriate wells are inoculated with the required organism (C. albicans at 1×10^4 organisms/ml and A. fumigatus at 5×10^5 organisms/ml) and the assay incubated at 30° for 24 hours.

[8] = tested on: Aspergillus fumigatus ATCC 28214; experiment: In vitro antifungal MIC, microtiter broth dilution; details: Aspergillus fumigatus, ATCC28214, 24 h, read-out: MIC values, A. fumigatus, 30°, 24 hours
[9] = ATCC11651, 168 h, 150 mg/kg per day, day 7
[10] = ATCC11651, 336 h, 150 mg/kg per day, day 14
[11] = ATCC11651, 504 h, 150 mg/kg per day, day 21

SMILES	pest or weed control at 100 ppm (Venturia inaequalis) [%]	pest or weed control at 100 ppm [2] [%]	pest or weed control at 100 ppm (Botrytis cinerea) [%]	pest or weed control at 100 ppm [3] [%]	pest or weed control at 100 ppm (Pyricularia oryzae) [%]	pest or weed control at 100 ppm (Rhizoctonia solani [4]) [%]	pest or weed control at 100 ppm (Puccinia recondita) [%]	pest or weed control at 100 ppm (Phytophthora infestans) [%]	pest or weed control at 100 ppm (Plasmorpara viticola) [%]	pest or weed control at 5000 g/ha (Pythium aphanadermatum) [%]	pest or weed control at 5000 g/ha (Rhizoctonia solani [5]) [%]	pest or weed control at 5000 g/ha [6] [%]	pest or weed control at 5000 g/ha (Sclerotium rolfsii) [%]	MIC [7] [µg/mL]	MIC [8] [µg/mL]	responders at 150 mg/kg [1, 9] [%]	responders at 150 mg/kg [1, 10] [%]	responders at 150 mg/kg [1, 11] [%]	further results
C=C(c1ccc(F)cc1)C(Cn1cncn1)(OC(=O)NC)c1ccc(F)cc1 (stereo not drawn) [Example 363]	0	49	92	28	0	0	38	0	0	0	0	0	0	100 (≈ 260 µM)	100 (≈ 260 µM)				responders at 150 mg/kg ([1]; ATCC11651, 168 h): 10%; responders at 150 mg/kg ([1]; ATCC11651, 336 h): 0%; responders at 150 mg/kg ([1]; ATCC11651, 504 h): 0%
C=C(c1ccc(C(F)(F)F)cc1)C(O)(Cn1cncn1)c1ccc(Cl)cc1 (stereo not drawn) [Example 67]			75		0	68		2	1	0	0	0	0	0.03 (≈ 0.0762 µM)	100 (≈ 254 µM)	100	100	100	pest or weed control at 20 ppm (Venturia inaequalis): 58%; pest or weed control at 20 ppm [2]: 99%; pest or weed control at 20 ppm (Botrytis cinerea): 60%; pest or weed control at 20 ppm [3]: 85%; pest or weed control at 20 ppm (Pyricularia oryzae): 0%; pest or weed control at 20 ppm (Rhizoctonia solani [4]): 35%; pest or weed control at 20 ppm (Puccinia recondita): 89%
C=C(c1cccc(Cl)c1)C(O)(Cn1cncn1)c1ccc(F)cc1 (stereo not drawn) [Example 39]	89	97	96	98	7	100	100	0	81	0	0	0	0	0.4 (≈ 1.16 µM)	25 (≈ 72.7 µM)	100	80		
C=C(c1ccccc1)C(O)(Cn1ncnc1SCCCC)c1ccc(F)cc1 (stereo not drawn) [Example 1459]	72	70	65	31	17	0	65	0	74	0	0	0	0	> 100	> 100				
C=C(c1ccc(OC)cc1)C(O)(Cn1cncn1)c1ccc(F)cc1 (stereo not drawn) [Example 726]					0	0		0	38	0	20	0	0	0.8 (≈ 2.36 µM)	6.3 (≈ 18.6 µM)	100	80	10	pest or weed control at 20 ppm (Venturia inaequalis): 75%; pest or weed control at 20 ppm [2]: 0%; pest or weed control at 20 ppm (Botrytis cinerea): 23%; pest or weed control at 20 ppm [3]: 81%; pest or weed control at 20 ppm (Pyricularia oryzae): 0%; pest or weed control at 20 ppm (Rhizoctonia solani [4]): 0%; pest or weed control at 20 ppm (Puccinia recondita): 100%
C=C(c1cccc(Cl)c1)C(O)(Cn1cncn1)c1ccc(Cl)cc1 (stereo not drawn) [Example 41]	100	100	96	98	7	97	100	0	100	0	0	0	0	0.4 (≈ 1.11 µM)	50 (≈ 139 µM)	100	100		
C=C(c1ccccc1F)C(O)(Cn1cncn1)c1ccc(F)cc1 (stereo not drawn) [Example 10]	0	76	52	63	0	17	64	0	0	0	0	0	0	1.6 (≈ 4.89 µM)	25 (≈ 76.4 µM)	20	10	0	
C=C(c1ccc(F)cc1)C(O)(Cn1ncnc1S)c1ccccc1F (stereo not drawn) [Example 1300]	100	100	93	92	58	81	100	0	0	0	0	0	0	≤ 0.4	6.3 (≈ 17.5 µM)				
